Laboratory results as given in patent US20070110833A1, “Composition comprising the alcohol compound isolated from the extract of cucurbitaceae family plant having anti-adipogenic and anti-obesity activity” (priority 2003, published 2007).

Tested on: 3T3-L1 cell
Experiment: Inhibition of adipocyte (3T3-L1) differentiation and triglyceride accumulation, Oil Red O staining
Assay type: cell-based
Method: Adipocyte cell (3T3-L1) purchased from ATCC (American Tissue Culture Collection, USA) was cultured in RPMI medium containing 10% FBS and MDI cocktail (isobutylmethylxanthine, dexamethasone, insulin) was added thereto for differentiating into mature adipocytes cell. After two days, the medium was replaced and treated with only insulin. Thereafter, the medium was replaced and equal concentration of insulin was treated again every other day. MDI ranging from 2.5 to 1000 ug/ml of the concentration was treated when the adipocytes differentiation was induced and equal concentration of the MDI was treated at every replacement of the medium.
After eight days lapsed, the accumulated fat within differentiated cell was stained with Oil Red O staining reagent and the absorbance was determined with optical density qualitatively. The inhibition percentage (%) was calculated by following Empirical formula 1. The Inhibition Percentage (%)=[O.D. of test group]/[O.D. value of Control group]×100 [Empirical Formula 1]

C[S+]([O-])c1ccc(-c2nc(-c3ccncc3)c(-c3ccc(F)cc3)[nH]2)cc1 (centres unmarked) [SB203580]
adipocyte differentiation and triglyceride accumulation (Experimental Example 1-3, cmc-9 and controls, FIG. 5): the triglyceride was not formed
level of produced triglycerides in differentiated 3T3-L1 cells (Oil Red O) (MDI-induced differentiation, 8 days, extracts 1 mg/ml, SB203580 10 uM, FIGS. 1 and 2): the triglyceride was not produced
